Measurements: patent US8273774B2, “Phenoxypyridinylamide compounds” (AstraZeneca AB, priority 2008, dated 2012)

Biological target: recombinant Human Phosphodiesterase B2 (PDE4B2) (Homo sapiens, UniProt Q07343)
Assay: Human Phosphodiesterase B2 Radiometric Assay
Format: biochemical
Settings: 0.1 μg/mL recombinant PDE4B2; preincubated at 30 C for 30 min; [3H]cyclic AMP 8 nM, stopped after 20 min; yttrium silicate SPA beads; read-out: PDE4B2 pIC50 (converted)
In short: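 Compounds preincubated 30 min at 30 C with 0.1 μg/mL recombinant PDE4B2 in 50 mM HEPES pH 7.5, 8.3 mM MgCl2, 1.7 mM EGTA, 0.01% Brij 35.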

Chain of recombinant Human Phosphodiesterase B2 (PDE4B2) (Q07343 1-564 isoform Q07343-2): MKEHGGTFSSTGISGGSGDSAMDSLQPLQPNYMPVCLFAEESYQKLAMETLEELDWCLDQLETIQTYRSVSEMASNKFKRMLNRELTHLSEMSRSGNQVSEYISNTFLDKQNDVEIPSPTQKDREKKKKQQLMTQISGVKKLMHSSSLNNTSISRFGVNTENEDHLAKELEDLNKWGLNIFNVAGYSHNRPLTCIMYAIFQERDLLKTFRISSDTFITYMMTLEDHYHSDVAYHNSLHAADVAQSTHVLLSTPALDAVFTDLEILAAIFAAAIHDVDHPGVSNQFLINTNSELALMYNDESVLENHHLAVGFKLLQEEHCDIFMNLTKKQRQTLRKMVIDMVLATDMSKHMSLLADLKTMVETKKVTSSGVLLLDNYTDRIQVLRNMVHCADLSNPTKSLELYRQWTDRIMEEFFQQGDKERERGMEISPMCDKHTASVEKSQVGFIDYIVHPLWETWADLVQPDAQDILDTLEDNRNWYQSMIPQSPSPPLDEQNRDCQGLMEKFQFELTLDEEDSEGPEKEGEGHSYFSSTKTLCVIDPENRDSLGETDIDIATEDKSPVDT

Compound | IC50 [nM]
Cc1nc(C(=O)N[C@H]2CC[C@@H](NC(=O)c3cc(F)cnc3Oc3cccc(-c4ccc(CN(C)C)cc4CN4CCOCC4)c3)CC2)cs1 [Example 119, N-((1s,4s)-4-(2-(4′-((dimethylamino)methyl)-2′-(morpholinomethyl)biphenyl-3-yloxy)-5-fluoronicotinamido)cyclohexyl)-2-methylthiazole-4-carboxamide] | 0.0794
Cc1cc(C(=O)N[C@H]2CC[C@@H](NC(=O)c3cc(F)cnc3Oc3cccc(-c4ccc(CN(C)C)cc4CN4CCOCC4)c3)CC2)nn1C [Example 120, N-((1s,4s)-4-(1,5-dimethyl-1H-pyrazole-3-carboxamido)cyclohexyl)-2-(4′-((dimethylamino)methyl)-2′-(morpholinomethyl)biphenyl-3-yloxy)-5-fluoronicotinamide] | 0.0501
O=C(N[C@H]1CC[C@@H](NC(=O)c2cc(F)cnc2Oc2cccc(-c3ccc(CCCN4CCNCC4)cc3)c2)CC1)c1cn2cc(F)ccc2n1 [Example 121, 6-fluoro-N-((1s,4s)-4-(5-fluoro-2-(4′-(3-(piperazin-1-yl)propyl)biphenyl-3-yloxy)nicotinamido)cyclohexyl)imidazo[1,2-a]pyridine-2-carboxamide] | 0.0631
C[C@@H]1CN(Cc2ccc(-c3cccc(Oc4ncc(F)cc4C(=O)N[C@H]4CC[C@@H](NC(=O)c5cn6cc(F)ccc6n5)CC4)c3)c(CN3CCOCC3)c2)C[C@H](C)N1 [Example 122, N-((1s,4s)-4-(2-(4′-(((3S,5R)-3,5-dimethylpiperazin-1-yl)methyl)-2′-(morpholinomethyl)biphenyl-3-yloxy)-5-fluoronicotinamido)cyclohexyl)-6-fluoroimidazo[1,2-a]pyridine-2-carboxamide] | 0.0398
Cc1cccc2nc(C(=O)N[C@H]3CC[C@@H](NC(=O)c4cc(F)cnc4Oc4cccc(-c5ccc(CN6C[C@@H](C)N[C@@H](C)C6)cc5CN5CCOCC5)c4)CC3)cn12 [Example 123, N-((1s,4s)-4-(2-(4′-(((3S,5R)-3,5-dimethylpiperazin-1-yl)methyl)-2′-(morpholinomethyl)biphenyl-3-yloxy)-5-fluoronicotinamido)cyclohexyl)-5-methylimidazo[1,2-a]pyridine-2-carboxamide] | 0.0631
C[C@@H]1CN(Cc2ccc(-c3cccc(Oc4ncc(F)cc4C(=O)N[C@H]4CC[C@@H](NC(=O)c5cc6n(n5)CCCC6)CC4)c3)c(CN3CCOCC3)c2)C[C@H](C)N1 [Example 124, N-((1s,4s)-4-(2-(4′-(((3S,5R)-3,5-dimethylpiperazin-1-yl)methyl)-2′-(morpholinomethyl)biphenyl-3-yloxy)-5-fluoronicotinamido)cyclohexyl)-4,5,6,7-tetrahydropyrazolo[1,5-a]pyridine-2-carboxamide] | 0.0501
C[C@@H]1CN(Cc2cc(-c3cccc(Oc4ncc(F)cc4C(=O)N[C@H]4CC[C@@H](NC(=O)c5cnn6cccnc56)CC4)c3)ccc2O)C[C@H](C)N1 [Example 125, N-((1s,4s)-4-(2-(3′-(((3S,5R)-3,5-dimethylpiperazin-1-yl)methyl)-4′-hydroxybiphenyl-3-yloxy)-5-fluoronicotinamido)cyclohexyl)pyrazolo[1,5-a]pyrimidine-3-carboxamide] | 0.0631
Cc1cc(C(=O)N[C@H]2CC[C@@H](NC(=O)c3cc(F)cnc3Oc3cccc(-c4cccc(CCCN5C[C@@H](C)N[C@@H](C)C5)c4)c3)CC2)nn1C [Example 126, N-((1s,4s)-4-(1,5-dimethyl-1H-pyrazole-3-carboxamido)cyclohexyl)-2-(3′-(3-((3S,5R)-3,5-dimethylpiperazin-1-yl)propyl)biphenyl-3-yloxy)-5-fluoronicotinamide] | 0.0501
O=C(N[C@H]1CC[C@@H](NC(=O)c2cc(F)cnc2Oc2cccc(-c3ccc(CCCN4CCCNCC4)cc3)c2)CC1)c1cc2n(n1)CCCC2 [Example 127, N-((1s,4s)-4-(2-(4′-(3-(1,4-diazepan-1-yl)propyl)biphenyl-3-yloxy)-5-fluoronicotinamido)cyclohexyl)-4,5,6,7-tetrahydropyrazolo[1,5-a]pyridine-2-carboxamide] | 0.0794
O=C(N[C@H]1CC[C@@H](NC(=O)c2cc(F)cnc2Oc2cccc(-c3ccc(CCCNCCCO)cc3)c2)CC1)c1cc2n(n1)CCCC2 [Example 128, N-((1s,4s)-4-(5-fluoro-2-(4′-(3-(3-hydroxypropylamino)propyl)biphenyl-3-yloxy)nicotinamido)cyclohexyl)-4,5,6,7-tetrahydropyrazolo[1,5-a]pyridine-2-carboxamide] | 0.126
Cc1cc(C(=O)N[C@H]2CC[C@@H](NC(=O)c3cc(F)cnc3Oc3cccc(-c4ccc(CCCN5CCNCC5)cc4)c3)CC2)nn1C [Example 130, N-((1s,4s)-4-(1,5-dimethyl-1H-pyrazole-3-carboxamido)cyclohexyl)-5-fluoro-2-(4′-(3-(piperazin-1-yl)propyl)biphenyl-3-yloxy)nicotinamide] | 0.0316

Continued, values first:

IC50 [nM] | Compound
0.126 | Cc1nc(C(=O)N[C@H]2CC[C@@H](NC(=O)c3cc(F)cnc3Oc3cccc(-c4cccc(CCCN5CCNCC5)c4)c3)CC2)cs1 [Example 131, N-((1s,4s)-4-(5-fluoro-2-(3′-(3-(piperazin-1-yl)propyl)biphenyl-3-yloxy)nicotinamido)cyclohexyl)-2-methylthiazole-4-carboxamide]
0.0398 | O=C(N[C@H]1CC[C@@H](NC(=O)c2cc(F)cnc2Oc2cccc(-c3ccc(CCCN4CCNCC4)cc3)c2)CC1)c1cc2ccccn2n1 [Example 132, N-((1s,4s)-4-(5-fluoro-2-(4′-(3-(piperazin-1-yl)propyl)biphenyl-3-yloxy)nicotinamido)cyclohexyl)pyrazolo[1,5-a]pyridine-2-carboxamide]
0.0501 | O=C(N[C@H]1CC[C@@H](NC(=O)c2cc(F)cnc2Oc2cccc(-c3ccc(CCCN4CCNCC4)cc3)c2)CC1)c1cc2n(n1)CCC2 [Example 133, N-((1s,4s)-4-(5-fluoro-2-(4′-(3-(piperazin-1-yl)propyl)biphenyl-3-yloxy)nicotinamido)cyclohexyl)-5,6-dihydro-4H-pyrrolo[1,2-b]pyrazole-2-carboxamide]
0.0631 | Cc1nc(C(=O)N[C@H]2CC[C@@H](NC(=O)c3cc(F)cnc3Oc3cccc(-c4ccc(CCCN5CCCN(C)CC5)cc4)c3)CC2)cs1 [Example 134, N-((1s,4s)-4-(5-fluoro-2-(4′-(3-(4-methyl-1,4-diazepan-1-yl)propyl)biphenyl-3-yloxy)nicotinamido)cyclohexyl)-2-methylthiazole-4-carboxamide]
0.0501 | Cc1nc(C(=O)N[C@H]2CC[C@@H](NC(=O)c3cc(F)cnc3Oc3cccc(-c4ccc(CCCN5CCCNCC5)cc4)c3)CC2)cs1 [Example 135, N-((1s,4s)-4-(2-(4′-(3-(1,4-diazepan-1-yl)propyl)biphenyl-3-yloxy)-5-fluoronicotinamido)cyclohexyl)-2-methylthiazole-4-carboxamide]
0.1 | Cc1nc(C(=O)N[C@H]2CC[C@@H](NC(=O)c3cc(F)cnc3Oc3cccc(-c4ccc(CCCNCCCO)cc4)c3)CC2)cs1 [Example 136, N-((1s,4s)-4-(5-fluoro-2-(4′-(3-(3-hydroxypropylamino)propyl)biphenyl-3-yloxy)nicotinamido)cyclohexyl)-2-methylthiazole-4-carboxamide]
